From EP4741380A1, “ISOXAZOLINE COMPOUND AND USE” (priority 2024, dated 2025)
Read-outs that look alike come from different tables or passages of the source.

Experiments:
[1] = test system: mites; experiment: Mite killing efficacy test with an in vitro model
Experimental: Mite collection: Live mites were gently picked up from a cage box with cotton swabs or small tweezers, 17-26 live mites per group.
Drug treatment and detection method: 100 µL of a drug solution with a different concentration (drug solution prepared by 3% DMSO solution + 97% water and having a target final concentration of 30 µM) was aspirated with a pipette and added to a 24-well plate for each group, ensuring full contact between the drug and the mites. The mites were separately incubated at normal temperature for 5 min, transferred from each plate to another dry 24-well plate with the top sealed, and air-dried for about 1 h. Mite actions were observed, and the number of dead mites/the total number of mites was recorded. Then, the 24-well plate containing the mites was cultured at room temperature and relatively high humidity. The number of dead mites/the total number of mites was counted separately after 1 h, 2 h, 4 h, 6 h, 8 h, 22 h, and 24 h (time points after drug addition), and mite mortality rates were calculated. The project ended 24 h after drug addition.
At a corresponding time point, a mite mortality rate greater than or equal to 90% is denoted as "+++", a mite mortality rate less than 90% and greater than or equal to 50% is denoted as "++", and a mite mortality rate less than 50% is denoted as "+".

[2] = In vivo pharmacokinetic evaluation in mice; set-up: species or system ICR mice; conditions: ICR, mouse, plasma; for AUC: read-out: AUC^1-24 h
Experimental: 1. Drug preparation: 5% DMSO + 10% macrogol 15 hydroxystearate (BASF) + 85% saline (where drug solutions have a final concentration of 1.2 mg/mL for the IV group and 3 mg/mL for the PO group). 2. Experimental animals: Each group included three mice (ICR mice, SPF grade). 3. Administration method: The body weight was measured before administration, and the dose was calculated according to the body weight. The mice were administered through intravenous injection or oral gavage. 4. Blood collection: After administration, blood samples were collected in 0.083 h, 0.25 h, 0.5 h, 1 h, 2 h, 4 h, 6 h, 8 h, and 24 h. The blood samples were collected via the cheek. Each sample included about 0.05 mL of blood anticoagulated with EDTA-2K. The blood samples were placed on wet ice after collection. 5. Sample treatment: The blood samples were placed on ice after collection and centrifuged within 1 h to obtain plasma (centrifugation conditions: 6000 g, 3 min, 2-8°C). Plasma samples were stored in a -80°C refrigerator before analysis. 6. Data processing: Pharmacokinetic parameters were calculated using Phoenix WinNonlin 8.2.0 based on plasma concentration data at different time points.

[3] = 30 µM drug solution, 4 h after drug addition, read-out: Mite Mortality Rate 4 h
[4] = 30 µM drug solution, 24 h after drug addition, read-out: Mite Mortality Rate 24 h
[5] = 30 µM drug solution, 4 h after drug addition
[6] = 30 µM drug solution, 24 h after drug addition

## Cc1cc(C2=NOC(c3cc(Cl)cc(Cl)c3)(C(F)(F)F)C2)ccc1C(=O)NCC(=O)N1CC(F)(C(F)(F)F)C1 (stereo not shown) [Example 025, 4-(5-(3,5-dichlorophenyl)-5-(trifluoromethyl)-4,5-dihydroisoxazol-3-yl)-N-(2-(3-fluoro-3-(trifluoromethyl)azetidin-1-yl)-2-oxoethyl)-2-methylbenzamide]
[1]; [3]
  mortality at 30 µM: < 50%
[1]; [4]
  mortality at 30 µM: < 50%

## Cc1cc(C2=NOC(c3cc(Cl)cc(Cl)c3)(C(F)(F)F)C2)ccc1C(=O)NCC(=O)N1CC(F)(CF)C1 (stereo not shown) [Example 026, 4-(5-(3,5-dichlorophenyl)-5-(trifluoromethyl)-4,5-dihydroisoxazol-3-yl)-N-(2-(3-fluoro-3-(fluoromethyl)azetidin-1-yl)-2-oxoethyl)-2-methylbenzamide]
[1]; [3]
  mortality at 30 µM: 50 to 90%
[1]; [4]
  mortality at 30 µM: > 90%

## Cc1cc(C2=NOC(c3cc(F)cc(Cl)c3)(C(F)(F)F)C2)ccc1C(=O)NCC(=O)NC1(C(F)(F)F)CC1 (stereo not shown) [Example 027, 4-(5-(3-chloro-5-fluorophenyl)-5-(trifluoromethyl)-4,5-dihydroisoxazol-3-yl)-2-methyl-N-(2-oxo-2-((1-(trifluoromethyl)cyclopropyl)amino)ethyl)benzamide]
[1]; [3]
  mortality at 30 µM: 50 to 90%
[1]; [4]
  mortality at 30 µM: > 90%

## Cc1cc(C2=NOC(c3cc(F)c(Cl)c(Cl)c3)(C(F)(F)F)C2)ccc1C(=O)NCC(=O)NC1(C(F)(F)F)CC1 (stereo not shown) [Example 028, 4-(5-(3,4-dichloro-5-fluorophenyl)-5-(trifluoromethyl)-4,5-dihydroisoxazol-3-yl)-2-methyl-N-(2-oxo-2-((1-(trifluoromethyl)cyclopropyl)amino)ethyl)benzamide]
[1]; [3]
  mortality at 30 µM: 50 to 90%
[1]; [4]
  mortality at 30 µM: > 90%

## Cc1cc(C2=NOC(c3cc(F)cc(C(F)(F)F)c3)(C(F)(F)F)C2)ccc1C(=O)NCC(=O)NC1(C(F)(F)F)CC1 (stereo not shown) [Example 031, 4-(5-(3-fluoro-5-(trifluoromethyl)phenyl)-5-(trifluoromethyl)-4,5-dihydroisoxazol-3-yl)-2-methy 1-N-(2-oxo-2-((1-(trifluoromethyl)cyclopropyl)amino)ethyl)benzamide]
[1]; [5]
  Mite Mortality Rate 4 h: +++ (a mite mortality rate greater than or equal to 90% is denoted as "+++")
[1]; [6]
  Mite Mortality Rate 24 h: +++ (a mite mortality rate greater than or equal to 90% is denoted as "+++")

## Cc1cc(Cl)cc(C2(C(F)(F)F)CC(c3ccc(C(=O)NCC(=O)NC4(C(F)(F)F)CC4)c(C)c3)=NO2)c1 (stereo not shown) [Example 032, 4-(5-(3-chloro-5-methylphenyl)-5-(trifluoromethyl)-4,5-dihydroisoxazol-3-yl)-2-methyl-N-(2-oxo-2-((1-(trifluoromethyl)cyclopropyl)amino)ethyl)benzamide]
[1]; [3]
  mortality at 30 µM: < 50%
[1]; [4]
  mortality at 30 µM: > 90%

## COc1cc(Cl)cc(C2(C(F)(F)F)CC(c3ccc(C(=O)NCC(=O)NC4(C(F)(F)F)CC4)c(C)c3)=NO2)c1 (stereo not shown) [Example 033, 4-(5-(3-chloro-5-methoxyphenyl)-5-(trifluoromethyl)-4,5-dihydroisoxazol-3-yl)-2-methyl-N-(2-oxo-2-((1-(trifluoromethyl)cyclopropyl)amino)ethyl)benzamide]
[1]; [3]
  mortality at 30 µM: < 50%
[1]; [4]
  mortality at 30 µM: > 90%

## Cc1cc(C2=NOC(c3cc(Cl)cc(Cl)c3)(C(F)(F)F)C2)ccc1C(=O)N(C)CC(=O)NC1(C(F)(F)F)CC1 (stereo not shown) [Example 034, 4-(5-(3,5-dichlorophenyl)-5-(trifluoromethyl)-4,5-dihydroisoxazol-3-yl)-N,2-dimethyl-N-(2-oxo-2-((1-(trifluoromethyl)cyclopropyl)amino)ethyl)benzamide]
[1]; [3]
  mortality at 30 µM: < 50%
[1]; [4]
  mortality at 30 µM: > 90%

## Cc1cc(C2=NOC(c3cc(Cl)cc(Cl)c3)(C(F)(F)F)C2)ccc1C(=O)N[C@H](C)C(=O)NC1(C(F)(F)F)CC1 (stereo partly drawn) [Example 035, 4-(5-(3,5-dichlorophenyl)-5-(trifluoromethyl)-4,5-dihydroisoxazol-3-yl)-2-methyl-N-((R)-1-oxo-1-((1-(trifluoromethyl)cyclopropyl)amino)propan-2-yl)benzamide]
[1]; [3]
  mortality at 30 µM: < 50%
[1]; [4]
  mortality at 30 µM: 50 to 90%

## Cc1cc(C2=NOC(c3cc(Cl)cc(Cl)c3)(C(F)(F)F)C2)ccc1C(=O)N[C@@H](C)C(=O)NC1(C(F)(F)F)CC1 (stereo partly drawn) [Example 036, 4-(5-(3,5-dichlorophenyl)-5-(trifluoromethyl)-4,5-dihydroisoxazol-3-yl)-2-methyl-N-((S)-1-oxo-1-((1-(trifluoromethyl)cyclopropyl)amino)propan-2-yl)benzamide]
[1]; [3]
  mortality at 30 µM: < 50%
[1]; [4]
  mortality at 30 µM: < 50%

## Cc1cc(C2=NOC(c3cc(Cl)cc(OC(F)(F)F)c3)(C(F)(F)F)C2)ccc1C(=O)NCC(=O)NC1(C(F)(F)F)CC1 (stereo not shown) [Example 037, 4-(5-(3-chloro-5-(trifluoromethoxy)phenyl)-5-(trifluoromethyl)-4,5-dihydroisoxazol-3-yl)-2-met hyl-N-(2-oxo-2-((1-(trifluoromethyl)cyclopropyl)amino)ethyl)benzamide]
[1]; [3]
  mortality at 30 µM: 50 to 90%
[1]; [4]
  mortality at 30 µM: > 90%

## O=C(CNC(=O)c1ccc(C2=NOC(c3cc(Cl)cc(Cl)c3)(C(F)(F)F)C2)cc1)NC1(C(F)(F)F)CC1 (stereo not shown) [Example 038, 4-(5-(3,5-dichlorophenyl)-5-(trifluoromethyl)-4,5-dihydroisoxazol-3-yl)-N-(2-oxo-2-((1-(trifluor omethyl)cyclopropyl)amino)ethyl)benzamide]
[1]; [3]
  mortality at 30 µM: < 50%
[1]; [4]
  mortality at 30 µM: > 90%

## Cc1cc(C2=NOC(c3cc(Cl)cc(Cl)c3)(C(F)(F)F)C2)ccc1C(=O)NCC(=O)NC1CC1 (stereo not shown) [Example 39 (Comparative Example 1), N-(2-(cyclopropylamino)-2-oxoethyl)-4-(5-(3,5-dichlorophenyl)-5-(trifluoromethyl)-4,5-dihydroisoxazol-3-yl)-2-methylbenzamide, reference compound]
[1]; 4 h, read-out: Mite Mortality Rate 4 h
  mortality at 30 µM: > 90%
[1]; 24 h, read-out: Mite Mortality Rate 24 h
  mortality at 30 µM: > 90%
[2]; IV (6 mg/kg)
  clearance: 2.06 mL/min/kg
  half-life: 738 min
  AUC: 37.1 µg·h/mL
[2]; IV (6 mg/kg), read-out: C0
  C0: 7800 ng/mL
[2]; PO (30 mg/kg)
  half-life: 708 min
  AUC: 173 µg·h/mL
[2]; PO (30 mg/kg), read-out: Cmax
  Cmax: 12300 ng/mL
[2]; PO (30 mg/kg), read-out: Tmax
  Tmax: 3.33 h
[2]; in vivo, IV (6 mg/kg), read-out: Vss
  Vd: 1.97 L/kg
[2]; PO (30 mg/kg) vs IV (6 mg/kg)
  bioavailability: 93.1%

## Cc1cc(C2=NOC(c3cc(Cl)cc(Cl)c3)(C(F)(F)F)C2)cc(Cl)c1C(=O)NCC(=O)NC1CC1 (stereo not shown) [Example 040, 2-chloro-N-(2-(cyclopropylamino)-2-oxoethyl)-4-(5-(3,5-dichlorophenyl)-5-(trifluoromethyl)-4,5-dihydroisoxazol-3-yl)-6-methylbenzamide]
[1]; [3]
  mortality at 30 µM: < 50%
[1]; [4]
  mortality at 30 µM: < 50%

## Cc1cc(C2=NOC(c3cc(Cl)cc(Cl)c3)(C(F)(F)F)C2)c(F)cc1C(=O)NCC(=O)NC1CC1 (stereo not shown) [Example 041, N-(2-(cyclopropylamino)-2-oxoethyl)-4-(5-(3,5-dichlorophenyl)-5-(trifluoromethyl)-4,5-dihydroisoxazol-3-yl)-5-fluoro-2-methylbenzamide]
[1]; [3]
  mortality at 30 µM: > 90%
[1]; [4]
  mortality at 30 µM: > 90%

## Cc1cc(C2=NOC(c3cc(Cl)cc(Cl)c3)(C(F)(F)F)C2)c(F)cc1C(=O)NCC(=O)NCC(F)(F)F (stereo not shown) [Example 042]
[1]; [5]
  Mite Mortality Rate 4 h: +++ (a mite mortality rate greater than or equal to 90% is denoted as "+++")
[1]; [6]
  Mite Mortality Rate 24 h: +++ (a mite mortality rate greater than or equal to 90% is denoted as "+++")

## Cc1c(C(=O)NCC(=O)NC2CC2)ccc(C2=NOC(c3cc(Cl)cc(Cl)c3)(C(F)(F)F)C2)c1F (stereo not shown) [Example 043, N-(2-(cyclopropylamino)-2-oxoethyl)-4-(5-(3,5-dichlorophenyl)-5-(trifluoromethyl)-4,5-dihydroisoxazol-3-yl)-3-fluoro-2-methylbenzamide]
[1]; [3]
  mortality at 30 µM: < 50%
[1]; [4]
  mortality at 30 µM: 50 to 90%

## Cc1c(C(=O)NCC(=O)NCC(F)(F)F)ccc(C2=NOC(c3cc(Cl)cc(Cl)c3)(C(F)(F)F)C2)c1F (stereo not shown) [Example 044]
[1]; [5]
  Mite Mortality Rate 4 h: +++ (a mite mortality rate greater than or equal to 90% is denoted as "+++")
[1]; [6]
  Mite Mortality Rate 24 h: +++ (a mite mortality rate greater than or equal to 90% is denoted as "+++")
